According to US7745493B2, “Methods of treating tardive dyskinesia and other movement disorders” (priority 1998, dated 2010):
Marks after values point to notes of the source that are not given here.

Tests used:
[1] = system: person two with long-standing TD; experiment: Rey-Osterrieth Complex Figure (Case 1); type: in vivo, human; conditions: ON drug, higher score better
Description: (§1) The following tables report on the results of the neuropsychological tests (Drug I is memantine and Drug II is acamprosate): […]

[2] = system: person two with long-standing TD; experiment: Grip Strength (Case 1); type: in vivo, human; conditions: ON drug, higher score better
Description: as §1

[3] = system: person two with long-standing TD; experiment: Digit Symbol (Case 1); type: in vivo, human; conditions: ON drug, higher score better
Description: as §1

[4] = system: person two with long-standing TD; experiment: California Verbal Learning Test 16-items (Case 1); type: in vivo, human; conditions: ON drug
Description: as §1

[5] = system: person two with long-standing TD; experiment: Choice Reaction Time (Case 1); type: in vivo, human; conditions: lower score better
Description: (§2) The tests showing such results included Simple Reaction Time, the Trail Making Test (both parts) and the Paced Auditory Serial Addition Test (PASAT). Choice reaction time, a test requiring both basic attention and concentration on a specific task that must be kept in mind, was slightly better on acamprosate, consistent with the hypothesis that general cognitive function, as opposed to simple attention, improves with acamprosate treatment.
as §1

[6] = system: person two with long-standing TD; experiment: Verbal Fluency (Case 1); type: in vivo, human; conditions: ON drug
Description: as §1

[7] = system: person two with Parkinson's disease and peak-dose dyskinesia; experiment: Case Report 3: peak-dose dyskinesia of treated Parkinson's disease; type: in vivo, human; conditions: Case 3; for effect on peak-dose dyskinesia: added to antiparkinson regime, memantine 10 mg three times a day, acamprosate 666 mg three times, then 333 mg four times a day, baclofen 30 and 60 mg daily, magnesium 300 mg three times a day
Procedure: The patient's Parkinson's disease was treated using levodopa/carbidopa and bromocriptine.
Prior to beginning treatment with acamprosate, the patient was on an antiparkinson treatment regime that consisted of 1 mg of pergolide three times a day, 5 mg of selegiline twice a day, and a combination of levodopa/carbidopa consisting of 550-600 mg of levodopa and 125-150 mg of carbidopa administered in divided doses.
The patient began acamprosate as an addition to the antiparkinson regime described above. Initially, the patient received 666 mg of acamprosate administered three times a day. Two weeks later the regime was adjusted such that the patient received 333 mg of acamprosate four times a day, taking one 333 mg pill with each daytime dose of 100 mg levodopa and 25 mg carbidopa. The patient's bedtime does of controlled-release levodopa-carbidopa (200 mg of levodopa and 50 mg of carbidopa) was continued, but were given without acamprosate. […] To confirm that the patient's improvement was due to the administration of acamprosate, the patient was taken off the acamprosate. […] During the period off acamprosate, an attempt was made to replace acamprosate with baclofen (a GABA-receptor agonist) at a total daily dose of 30 mg, and then with baclofen at a total daily dose of 60 mg.
Several months later, magnesium (300 mg elemental magnesium, as a mixed chelate), was added to the regimen. It was taken three times a day, together with a one of the patient's regular doses of levodopa/carbidopa. […] To establish whether the improvement was due to magnesium, the magnesium was stopped after several weeks.

[8] = system: person two with long-standing TD; experiment: Figural Fluency (Case 1); type: in vivo, human; conditions: ON drug
Description: as §1

[9] = system: person two with long-standing TD; experiment: Simple Reaction Time (neuropsychological test, Case 1); type: in vivo, human; conditions: lower score better
Procedure: On acamprosate, the patient was able to sustain concentration for prolonged periods. […] The patient's cognitive improvement was also assessed using formal neuropsychological measures. The patient was tested while on the drug, then taken off of the drug and tested two days later. On the drug, the patient was able to recall 13 of the 15 items after a short delay as well as 13 of the 15 items after a long delay, as measured by the Rey Auditory Verbal Learning Test. This was in comparison to the patient's ability while off the drug to recall only 7 of the 15 items after a short delay as well as 8 of the items after a long delay in tests performed. In addition, the patient was able to recognize all 15 of the items while on acamprosate but while off the drug (and while having been off of memantine for over 2 months) the patient could only recognize 10 of the items. The order of testing would give the advantage of familiarity to the off-drug condition. Nonetheless, the difference in favor of the on-drug condition was substantial.
as §2, §1

[10] = system: person with simple tic of the neck; experiment: Case Report 5: frequency of simple tic of the neck; type: in vivo, human; conditions: Case 5
Procedure: A person had simple tic of the neck that involved forceful extension and rotation of the neck to the right. The tic had started in the context of therapy of depression with dextroamphetamine and pramipexole, a dopamine agonist drug. The tic occurred from 20-50 times per hour, with greater frequency when they were tired or under stress.
They were initially treated with 666 mg of acamprosate three times a day. Within 24 hours after the start of acamprosate therapy, the frequency and severity of the tic decreased dramatically, to a rate of less than 5 per hour. The patient often was free of tics completely for 2 to 3 hours after each dose of acamprosate, after which time the tic would very gradually return. The dose was then raised to 666 mg four times a day. On this dose, rates of more than 5 per hour occurred only under unusually stressful circumstances, and there were frequent tic-free periods of 4 hours or more. […] On a second day without acamprosate, the rate of tics was again over 20 per hour.
[…] then added chelated magnesium, at a dosage of 300 mg of elemental magnesium 3 times a day. With magnesium supplementation, the average tic frequency dropped to 6 hour or less. When 666 mg of acamprosate was given three times a day was given together with magnesium 300 mg three times a day, the usual tic-free period after each acamprosate dose increased from approximately 3 hours to approximately 5 hours.

[11] = in vivo; cited from earlier work
3,338 patients = conditions: alcoholism treatment; cited from earlier work

CC12CC3CC(C)(C1)CC(N)(C3)C2 [memantine]
Rey-Osterrieth Complex Figure Copy Organization [1]: 5
Rey-Osterrieth Complex Figure Copy Presence & Accuracy [1]: 20
Rey-Osterrieth Complex Figure Delayed Retention [1]: −11.1
Rey-Osterrieth Complex Figure Immediate Retention [1]: −55
Grip Strength DH [2]: DH = 17.7
Grip Strength NDH [2]: NDH = 21.7
Digit Symbol [3]: 34
CVLT List A 1-5 total (80 max) ([4]; higher score better): 53
CVLT List A Trial 1 ([4]; higher score better): 7
CVLT List A Trial 5 ([4]; higher score better): 13
CVLT List B ([4]; higher score better): 7
CVLT Long-Delay Cued Recall ([4]; higher score better): 15
CVLT Long-Delay Free Recall ([4]; higher score better): 12
CVLT Recognition Hits ([4]; higher score better): 16
CVLT Short-Delay Cued Recall ([4]; higher score better): 13
CVLT Short-Delay Free Recall ([4]; higher score better): 10
CVLT False Positives ([4]; lower score better): 3
CVLT Intrusions ([4]; lower score better): 6
CVLT Perseverations ([4]; lower score better): 23
Choice Reaction Time 500 Green [5]: 362 ms
Choice Reaction Time 500 Red [5]: 421 ms
Choice Reaction Time 1500 Green [5]: 365 ms
Choice Reaction Time 1500 Red [5]: 422 ms
Verbal Fluency Category (Animals) Per [6]: Per = 0^b
Verbal Fluency Letter (CFL) Per [6]: Per = 2^b
Verbal Fluency Category (Animals) Total ([6]; higher score better): Total = 25
Verbal Fluency Letter (CFL) Total ([6]; higher score better): Total = 70
effect on peak-dose dyskinesia [7]: reduced their dyskinetic movements from severe to mild-to-moderate
Figural Fluency Unique Designs ([8]; higher score better): 124
Figural Fluency Perseverations ([8]; lower score better): 8
Simple Reaction Time 500 Green [9]: 284 ms
Simple Reaction Time 500 Red [9]: 266 ms
Simple Reaction Time 1500 Green [9]: 212 ms
Simple Reaction Time 1500 Red [9]: 224 ms

CC(=O)NCCCS(=O)(=O)O [acamprosate, calcium N-acetylhomotaurinate]
tic-free periods ([10]; 666 mg four times a day): ≥ 4 h
tic rate ([10]; 666 mg three times a day): less than 5 per hour
time to decrease of tic frequency and severity ([10]; after start of therapy): ≤ 24 h
Choice Reaction Time 500 Green ([5]; ON drug): 382 ms
Choice Reaction Time 500 Red ([5]; ON drug): 426 ms
Choice Reaction Time 1500 Green ([5]; ON drug): 408 ms
Choice Reaction Time 1500 Red ([5]; ON drug): 379 ms
absorption from the GI tract [11]: irregularly absorbed
side effects in controlled trials (3,338 patients): no severe medical or neurological side effects
effect on levodopa/carbidopa treatment of hypokinesia and rigidity [7]: no decrease in the efficacy
periods without dyskinesia following each dose [7]: up to two hours
time to return of dyskinetic movements after stopping [7]: Within one day
effect on peak-dose dyskinesia [7]: reduced from moderate to mild intensity
Simple Reaction Time 500 Green ([9]; ON drug): 286 ms
Simple Reaction Time 500 Red ([9]; ON drug): 272 ms
Simple Reaction Time 1500 Green ([9]; ON drug): 261 ms
Simple Reaction Time 1500 Red ([9]; ON drug): 264 ms
